Reference: ChEMBL document CHEMBL4483862, “Open-source discovery of chemical leads for next-generation chemoprotective antimalarials” (2018)

Test system: Plasmodium berghei
Assay: Luciferase/luciferin-expressing antifolate-resistant parasites were used to infect a culture of HepG2 cells that were pre-incubated with compounds. Infected hepatocytes emit light due to the luciferase reaction. Assay results are presented as the percent inhibition of light emission compared to control. […]
Type: functional
Conditions: sporozoite; for IC90: read-out: LUCIFERASE INFECTION ASSAY - IC90

| Structure (SMILES) | IC90 | other results |
| --- | --- | --- |
| CN(C(=O)COC(=O)c1nc(Cl)c(Cl)c(Cl)c1Cl)C1CCS(=O)(=O)C1 (configuration not stated) | > 10 µM | IC50 (HEPG2TOX_HILL_SLOPE 15.2, HEPG2TOX_R_SQUARED 0.451, read-out: LUCIFERASE INFECTION ASSAY - IC50): > 10 µM |
| CC1CCCCC1NC(=O)/C(C#N)=C/C=C/c1ccccc1[N+](=O)[O-] (configuration not stated) | > 10 µM | IC50 (HEPG2TOX_HILL_SLOPE 14.8, 8.85, HEPG2TOX_R_SQUARED 0.251, 0.979, PBLUC_HILL_SLOPE 2.96, PBLUC_R_SQUARED 0.503, read-out: LUCIFERASE INFECTION ASSAY - IC50): 8.55 µM |
| COc1ccc(CC(N)c2csc(NC(=O)C(c3ccccc3)c3ccccc3)n2)cc1 (configuration not stated) | 5.8 µM | IC50 (HEPG2TOX_HILL_SLOPE 15.4, HEPG2TOX_R_SQUARED 0.86, PBLUC_HILL_SLOPE 4.59, PBLUC_R_SQUARED 0.756, read-out: LUCIFERASE INFECTION ASSAY - IC50): 3.59 µM |
| N#Cc1ccc(OC(=O)c2c(Cl)cccc2Cl)cc1 | > 11.3 µM | IC50 (HEPG2TOX_HILL_SLOPE 15.2, HEPG2TOX_R_SQUARED 0.237, read-out: LUCIFERASE INFECTION ASSAY - IC50): > 11.3 µM |
| O=c1c(Cl)c(Cl)cnn1-c1ccc(S(=O)(=O)NCCCOCC2CC2)cc1 | 4.65 µM | IC50 (HEPG2TOX_HILL_SLOPE 15.7, HEPG2TOX_R_SQUARED 0.58, PBLUC_HILL_SLOPE 8.81, PBLUC_R_SQUARED 0.0863, read-out: LUCIFERASE INFECTION ASSAY - IC50): 3.62 µM |
| CNC(=O)c1cccc(NC(=O)c2ccc3[nH]c4c(c3c2)CCCC4)c1 | > 10 µM | IC50 (HEPG2TOX_HILL_SLOPE 15.2, HEPG2TOX_R_SQUARED 0.62, read-out: LUCIFERASE INFECTION ASSAY - IC50): > 10 µM |
| Cc1nn(-c2ccccc2)c(C)c1C(=O)ONC(=N)c1ccc(C(C)(C)C)cc1 | 3.03 µM | IC50 (HEPG2TOX_HILL_SLOPE 14.9, HEPG2TOX_R_SQUARED 0.924, PBLUC_HILL_SLOPE 26.9, PBLUC_R_SQUARED 0.601, read-out: LUCIFERASE INFECTION ASSAY - IC50): 2.79 µM |
| Cc1csc(NC(=O)Nc2cc(C(F)(F)F)cc(C(F)(F)F)c2)c1 | 3.4 µM | IC50 (HEPG2TOX_HILL_SLOPE 15.4, HEPG2TOX_R_SQUARED 0.694, PBLUC_HILL_SLOPE 2.82, PBLUC_R_SQUARED 0.474, read-out: LUCIFERASE INFECTION ASSAY - IC50): 1.56 µM |
| COc1ccc2cc(CN(C)C(C)C(=O)NCc3ccc(F)cc3)ccc2c1 (configuration not stated) | > 10 µM | IC50 (HEPG2TOX_HILL_SLOPE 14.9, HEPG2TOX_R_SQUARED 0.671, read-out: LUCIFERASE INFECTION ASSAY - IC50): > 10 µM |
| CCOC(=O)c1cc(C#N)c(Sc2n[nH]c(=O)n2C(C)C)nc1C(F)(F)F | > 8.22 µM | IC50 (HEPG2TOX_HILL_SLOPE 15.1, HEPG2TOX_R_SQUARED 0.842, PBLUC_HILL_SLOPE 4.42, PBLUC_R_SQUARED 0.232, read-out: LUCIFERASE INFECTION ASSAY - IC50): 5.41 µM |
| CC(C)N1C(=O)N(CCc2ccccc2)C2(CCN(Cc3ccccc3)CC2)C1=O | > 8.14 µM | IC50 (HEPG2TOX_HILL_SLOPE 15.6, HEPG2TOX_R_SQUARED 0.916, PBLUC_HILL_SLOPE 3.95, PBLUC_R_SQUARED 0.588, read-out: LUCIFERASE INFECTION ASSAY - IC50): 4.99 µM |
| C=CCc1ccccc1OCC(O)CNC(C)(C)CC(C)(C)C (configuration not stated) | 4.91 µM | IC50 (HEPG2TOX_HILL_SLOPE 15.1, HEPG2TOX_R_SQUARED 0.905, PBLUC_HILL_SLOPE 217, PBLUC_R_SQUARED 0.361, read-out: LUCIFERASE INFECTION ASSAY - IC50): 4.86 µM |
| Cc1ccc(O)c(C(=O)NCCc2ccc3c(c2)OCCO3)c1 | 7.45 µM | IC50 (HEPG2TOX_HILL_SLOPE 15.5, HEPG2TOX_R_SQUARED 0.566, PBLUC_HILL_SLOPE 1.92, PBLUC_R_SQUARED 0.779, read-out: LUCIFERASE INFECTION ASSAY - IC50): 2.37 µM |
| CCOc1ccc2ccccc2c1/C=C/c1ccc2cccc(O)c2n1 | 3.84 µM | IC50 (HEPG2TOX_HILL_SLOPE 14.8, HEPG2TOX_R_SQUARED 0.407, PBLUC_HILL_SLOPE 11.5, PBLUC_R_SQUARED 0.372, read-out: LUCIFERASE INFECTION ASSAY - IC50): 3.17 µM |
| CCn1c(C)nc2cc(C(=O)N/N=C/c3sc(N4CCCCC4)nc3-c3cccs3)ccc21 | 4.03 µM | IC50 (HEPG2TOX_HILL_SLOPE 15, HEPG2TOX_R_SQUARED 0.462, PBLUC_HILL_SLOPE 10.3, PBLUC_R_SQUARED 0.738, read-out: LUCIFERASE INFECTION ASSAY - IC50): 3.26 µM |
| COc1cc(-c2nc3ccc(NC(=O)Nc4cccc(C(F)(F)F)c4)cn3n2)cc(OC)c1OC | 8.43 µM | IC50 (HEPG2TOX_HILL_SLOPE 15.4, HEPG2TOX_R_SQUARED 0.156, PBLUC_HILL_SLOPE 4.31, PBLUC_R_SQUARED 0.169, read-out: LUCIFERASE INFECTION ASSAY - IC50): 5.06 µM |

| Structure (SMILES) | IC90 | other results |
| --- | --- | --- |
| CCOc1cc(CNCc2nc3ccccc3[nH]2)ccc1OCc1cccs1 | > 10 µM | IC50 (HEPG2TOX_HILL_SLOPE 15, HEPG2TOX_R_SQUARED 0.655, PBLUC_HILL_SLOPE 1.7, PBLUC_R_SQUARED 0.452, read-out: LUCIFERASE INFECTION ASSAY - IC50): 4.17 µM |
| COc1cc2c(cc1OC)CN(C(=O)CCN1c3ccccc3Sc3ccccc31)CC2 | 8.48 µM | IC50 (HEPG2TOX_HILL_SLOPE 15.5, HEPG2TOX_R_SQUARED 0.469, PBLUC_HILL_SLOPE 3.54, PBLUC_R_SQUARED 0.432, read-out: LUCIFERASE INFECTION ASSAY - IC50): 4.56 µM |
| COc1ccc(OC)c(C(=O)/C=C/c2cc(Br)cs2)c1 | 5.17 µM | IC50 (HEPG2TOX_HILL_SLOPE 14.7, HEPG2TOX_R_SQUARED 0.849, PBLUC_HILL_SLOPE 92.6, PBLUC_R_SQUARED 0.363, read-out: LUCIFERASE INFECTION ASSAY - IC50): 5.05 µM |
| N#CC1(c2ccccc2)C/C(=C\c2cccnc2)C(=O)/C(=C/c2cccnc2)C1 (configuration not stated) | 4.83 µM | IC50 (HEPG2TOX_HILL_SLOPE 15.6, HEPG2TOX_R_SQUARED 0.458, PBLUC_HILL_SLOPE 155, PBLUC_R_SQUARED 0.194, read-out: LUCIFERASE INFECTION ASSAY - IC50): 4.76 µM |
| C=C(c1ccccc1)[n+]1ccc(C(=O)c2ccccc2)cc1 | > 9.01 µM | IC50 (HEPG2TOX_HILL_SLOPE 15.5, HEPG2TOX_R_SQUARED 0.47, PBLUC_HILL_SLOPE 4.11, PBLUC_R_SQUARED 0.394, read-out: LUCIFERASE INFECTION ASSAY - IC50): 5.35 µM |
| Cc1nc(NC(=O)CSc2nnc(-c3c[nH]c4ccccc34)n2C2CC2)c(Cl)cc1Cl | > 10 µM | IC50 (HEPG2TOX_HILL_SLOPE 15.3, 2.10, HEPG2TOX_R_SQUARED 0.288, 0.992, PBLUC_HILL_SLOPE 2.43, PBLUC_R_SQUARED 0.583, read-out: LUCIFERASE INFECTION ASSAY - IC50): 4.48 µM |
| CCOc1ccc(-c2cc(-c3ccc(S(C)(=O)=O)cc3)nc3c2cnn3C(C)C)cc1 | > 10 µM | IC50 (HEPG2TOX_HILL_SLOPE 15.4, HEPG2TOX_R_SQUARED 0.615, PBLUC_HILL_SLOPE 23, PBLUC_R_SQUARED 0.199, read-out: LUCIFERASE INFECTION ASSAY - IC50): 9.21 µM |
| COc1ccc(C(C)=O)cc1COc1cccc(C(=O)NCc2ccccc2)c1 | 9.35 µM | IC50 (HEPG2TOX_HILL_SLOPE 15.6, HEPG2TOX_R_SQUARED 0.727, PBLUC_HILL_SLOPE 15.6, PBLUC_R_SQUARED 0.0647, read-out: LUCIFERASE INFECTION ASSAY - IC50): 8.12 µM |
| CC(C)n1ncc2c(C(=O)Nc3ccc(N4CCN(C)CC4)nc3)cc(-c3cccs3)nc21 | 8.59 µM | IC50 (HEPG2TOX_HILL_SLOPE 15.5, HEPG2TOX_R_SQUARED 0.177, PBLUC_HILL_SLOPE 20.4, 20.5, PBLUC_R_SQUARED 0.223, 0.421, read-out: LUCIFERASE INFECTION ASSAY - IC50): 7.71 µM |
| CC(C)(C)c1csc(NC(=O)c2ccc(Br)cc2)n1 | 8.74 µM | IC50 (HEPG2TOX_HILL_SLOPE 15.1, HEPG2TOX_R_SQUARED 0.819, PBLUC_HILL_SLOPE 4.4, PBLUC_R_SQUARED 0.25, read-out: LUCIFERASE INFECTION ASSAY - IC50): 5.3 µM |
| FC1(F)Oc2ccc(Nc3cc(-c4cc(Cl)cc(Cl)c4)ncn3)cc2OC1(F)F | > 7.4 µM | IC50 (HEPG2TOX_HILL_SLOPE 15.2, HEPG2TOX_R_SQUARED 0.834, PBLUC_HILL_SLOPE 14.8, PBLUC_R_SQUARED 0.0861, read-out: LUCIFERASE INFECTION ASSAY - IC50): 6.88 µM |
| CCc1cccc2c(C3=NNC(=Nc4ccc(S(=O)(=O)N5CCOCC5)cc4)SC3)c[nH]c12 | > 10 µM | IC50 (HEPG2TOX_HILL_SLOPE 14.9, HEPG2TOX_R_SQUARED 0.843, PBLUC_HILL_SLOPE 3.05, PBLUC_R_SQUARED 0.104, read-out: LUCIFERASE INFECTION ASSAY - IC50): 5.65 µM |
| NC(CCc1ccccc1)c1csc(Nc2ccc(C(=O)NCc3ccco3)cn2)n1 (configuration not stated) | 7.53 µM | IC50 (HEPG2TOX_HILL_SLOPE 15.2, HEPG2TOX_R_SQUARED 0.624, PBLUC_HILL_SLOPE 17, PBLUC_R_SQUARED 0.625, read-out: LUCIFERASE INFECTION ASSAY - IC50): 6.62 µM |
| Nc1c(C(=O)c2ccc3c(c2)NC(=O)CO3)sc2c1c(=O)[nH]c(=O)n2Cc1ccccc1 | > 10 µM | IC50 (HEPG2TOX_HILL_SLOPE 15, HEPG2TOX_R_SQUARED 0.948, PBLUC_HILL_SLOPE 0.935, PBLUC_R_SQUARED 0.804, read-out: LUCIFERASE INFECTION ASSAY - IC50): 1.58 µM |
| O=C(NCCCn1cnc2ccccc21)c1[nH]nc2ccccc12 | > 10 µM | IC50 (HEPG2TOX_HILL_SLOPE 14.9, HEPG2TOX_R_SQUARED 0.872, PBLUC_HILL_SLOPE 4.15, PBLUC_R_SQUARED 0.429, read-out: LUCIFERASE INFECTION ASSAY - IC50): 6.32 µM |
